The values below are quoted from earlier work in paper PMC7767166, “Imidazole and Imidazolium Antibacterial Drugs Derived from Amino Acids” (Pharmaceuticals, 2020).

Data set [1] deals with B. subtilis. Also on record: method as in PMID 26777771. The following applies: cited from earlier work.
Data set [2] concerns MRC-5 cells. Set-up: method as in PMID 19407848. As to conditions: cited from earlier work.

Marks after values point to notes of the source that are not given here.

As for Alamethicin, the “B. subtilis MIC” value in data set [1] was 16 µg/mL. Further, the “IC50 (cytotoxicity against MRC-5 cells)” value in data set [2] was 62.5 ^f [42] μg/mL.
